Consider 10 compounds from patent US5916785A, “Process of oxidizing alcohols or carboxylic acids with alcohol/aldehyde dehydrogenase from gluconobacter” (Roche Vitamins Inc., priority 1992, dated 1999).

For test [1], the system named is AADH. Nature of the test: Effect of metal ions on the enzyme activity. Particulars: standard DCIP/PMS assay. The format is biochemical, Gluconobacter oxydans DSM No. 4025. The text has this:
Using the assay procedure described under section 1), the effect of various metal ions on the enzyme activity was examined. […] The others affected the enzyme activity strongly or moderately.

The subject of test [2] is AADH. Particulars: substrate used instead of L-sorbose.
Experimental: The enzyme assay was performed at 25° C. by measuring the decrease of absorbance at 600 nm of DCIP with a spectrophotometer (UVIKON 810, Kontron K.K.). One unit of the enzyme activity was defined as the amount of the enzyme which catalyzed the reduction of 1 μmole of DCIP per minute. The extinction coefficient of DCIP at pH 8.0 was taken as 15 mMol^-1. The standard reaction mixture (1.0 ml) contained 0.1 mMol DCIP, 1 mMol PMS, 125 mMol L-sorbose, 50 mMol Tris-malate-NaOH buffer (pH 8.0), and 3-8 μl of the enzyme solution. A reference cuvette contained all the above components except the substrate.
The substrate specificity of AADH was determined using the same enzyme assay method as described under section 1) above, except that various further substrates were used instead of L-sorbose.
For test [3], the system named is AADH. Description: Effect of inhibitors on the enzyme activity. The note with it: standard DCIP/PMS assay. The format is biochemical, Gluconobacter oxydans DSM No. 4025.
The subject of test [4] is AADH. Description: Measurement of the Km (Michaelis constant) values, DCIP/PMS enzyme assay. The format is biochemical, Gluconobacter oxydans DSM No. 4025. The note with it: mixture of DCIP and PMS as electron acceptors; 25° C., pH 8.0; read-out: apparent Michaelis constant (Km).

Molecules are shown by their SMILES.

With `[Mg+2]` [Mg^2+], the “effect of metal ions on the AADH enzyme activity” value (shortened to “effect of metal ions”) in test [1] is “did not affect”.

Consider `[Mn+2]` [Mn^2+], for which the “effect of metal ions” value in test [1] is reported as “strong inhibitors”.

For the compound `CCO` [ethanol], in test [2], the “oxidation as substrate by AADH” value is “good substrate”.

Regarding `[Ca+2]` [Ca^2+], the “effect of metal ions” value in test [1] is on record as “did not affect”.

Turning to `CO` [methanol], the “oxidation as substrate by AADH” value in test [2] is on record as “hardly oxidizes”.

In the case of `[Cu+2]` [Cu^2+], in test [1], the “effect of metal ions” value was “strong inhibitors”.

Consider `[Fe+3]` [Fe^3+], for which, in test [1], the “effect of metal ions” value is reported as “strong inhibitors”.

Regarding `O=C(O)CN(CCN(CC(=O)O)CC(=O)O)CC(=O)O` [EDTA, Ethylenediamine tetraacetic acid], in test [3], the “effect of inhibitors on the AADH enzyme activity” value was “strongly inhibited”.

With `O=C(O)CN(CCOCCOCCN(CC(=O)O)CC(=O)O)CC(=O)O` [EGTA, ethylene glycol bis(beta-aminoethylether)-N,N,N',N'-tetraacetic acid], the “effect of inhibitors on the AADH enzyme activity” value in test [3] is recorded as “strongly inhibited”.

Regarding `CCCO` [1-propanol], the Km in test [4] is 2000 µM.

As a reminder, the Km is the substrate concentration at which the rate is half of its maximum.
